Data on two molecules can be found in PMC7614367, “Itraconazole inhibits endothelial cell migration by disrupting inositol pyrophosphate-dependent focal adhesion dynamics and cytoskeletal remodeling” (Biomedicine & Pharmacotherapy, 2023).

SMILES strings stand for the structures.

Test [1] deals with T1, FAK (GST-FAK, flag-FAK) (Homo sapiens, UniProt Q05397).
T1 construct: gene PTK2; full-length FAK, GST- or flag-tagged, produced in HEK293 cells; tags kept; endogenous HUVEC protein also pulled down
T1 sequence (Q05397 2-1052): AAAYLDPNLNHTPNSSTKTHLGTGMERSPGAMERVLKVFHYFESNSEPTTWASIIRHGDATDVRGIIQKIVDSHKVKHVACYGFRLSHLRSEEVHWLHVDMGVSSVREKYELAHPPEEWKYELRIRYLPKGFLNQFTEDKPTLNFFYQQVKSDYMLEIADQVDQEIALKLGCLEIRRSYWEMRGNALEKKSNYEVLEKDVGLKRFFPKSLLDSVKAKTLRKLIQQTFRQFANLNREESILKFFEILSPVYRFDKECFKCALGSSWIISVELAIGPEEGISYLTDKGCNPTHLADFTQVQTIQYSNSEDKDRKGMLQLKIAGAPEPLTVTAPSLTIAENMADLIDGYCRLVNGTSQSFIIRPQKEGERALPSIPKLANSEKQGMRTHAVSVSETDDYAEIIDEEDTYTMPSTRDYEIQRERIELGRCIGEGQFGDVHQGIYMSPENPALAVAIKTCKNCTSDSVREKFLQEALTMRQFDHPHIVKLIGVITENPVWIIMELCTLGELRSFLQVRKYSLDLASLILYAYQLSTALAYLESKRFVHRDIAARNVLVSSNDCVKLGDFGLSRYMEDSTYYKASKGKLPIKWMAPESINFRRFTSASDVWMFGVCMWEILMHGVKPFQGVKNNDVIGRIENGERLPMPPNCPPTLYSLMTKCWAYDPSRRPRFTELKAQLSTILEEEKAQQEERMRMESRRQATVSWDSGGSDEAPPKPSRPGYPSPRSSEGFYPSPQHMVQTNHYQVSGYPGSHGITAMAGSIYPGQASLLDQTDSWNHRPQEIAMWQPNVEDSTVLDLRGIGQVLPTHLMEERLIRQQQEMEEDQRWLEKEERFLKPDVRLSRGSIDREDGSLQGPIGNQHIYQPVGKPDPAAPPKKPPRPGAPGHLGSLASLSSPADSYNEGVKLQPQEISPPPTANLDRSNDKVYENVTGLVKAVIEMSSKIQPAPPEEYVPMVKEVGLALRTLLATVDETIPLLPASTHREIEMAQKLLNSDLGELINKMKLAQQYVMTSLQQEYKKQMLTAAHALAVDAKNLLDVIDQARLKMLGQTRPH
Kind of test: bead pull-down of GST-FAK by flag-FAK, western blot. Type of test: binding. The following applies: CF2 (10 μM) competing with 5-InsP7 (5 μM). (In general: A western blot detects proteins with antibodies after separation by electrophoresis.)

For another test, the target named is T2, p34 (flag-p34) (Homo sapiens, UniProt O15144).
T2 construct: gene ARPC2; tag kept; endogenous HUVEC protein also pulled down
Kind of test: affinity resin pull-down of purified protein, western blot. Type of test: binding. Particulars: immobilised 5-PCP-InsP5 resin; 4 °C overnight; also endogenous protein from HUVEC lysate.

The target of a further test is T3, coronin (GST-coronin) (Homo sapiens, UniProt Q9BR76).
T3 construct: gene CORO1B; GST-fused coronin produced in HEK293 cells, eluted with glutathione; tag kept; endogenous HUVEC protein also pulled down
T3 sequence (Q9BR76 whole entry, the tested form may be a part): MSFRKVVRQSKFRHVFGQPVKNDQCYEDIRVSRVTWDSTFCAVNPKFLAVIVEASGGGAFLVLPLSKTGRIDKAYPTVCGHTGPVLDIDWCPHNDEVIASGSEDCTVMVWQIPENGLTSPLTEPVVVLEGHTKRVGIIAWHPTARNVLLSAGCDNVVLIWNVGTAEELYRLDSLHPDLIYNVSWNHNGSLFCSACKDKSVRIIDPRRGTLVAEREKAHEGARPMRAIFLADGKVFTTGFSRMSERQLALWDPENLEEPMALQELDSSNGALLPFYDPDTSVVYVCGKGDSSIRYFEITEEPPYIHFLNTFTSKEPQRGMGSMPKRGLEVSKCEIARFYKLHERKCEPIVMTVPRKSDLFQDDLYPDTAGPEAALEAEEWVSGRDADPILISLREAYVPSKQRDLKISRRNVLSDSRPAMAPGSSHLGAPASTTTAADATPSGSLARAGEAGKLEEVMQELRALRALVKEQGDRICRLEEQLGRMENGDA
The description is as above. Type of test: binding. Particulars: immobilised 5-PCP-InsP5 resin; 4 °C overnight; also endogenous protein from HUVEC lysate.

Test [2] addresses T1, FAK (GST-FAK, flag-FAK). The test is described as above. Type of test: binding. The following applies: immobilised 5-PCP-InsP5 resin; 4 °C overnight; also endogenous protein from HUVEC lysate; free 5-PCP (10 μM) with 5-InsP7 (5 μM) in a FAK dimerization competition assay.
A further test deals with T4, endogenous FAK (MEF) (Mus musculus, UniProt P34152).
T4 construct: gene Ptk2; endogenous full-length FAK in lysates of WT and IP6K1 KO mouse embryonic fibroblasts
T4 sequence (P34152 2-1052): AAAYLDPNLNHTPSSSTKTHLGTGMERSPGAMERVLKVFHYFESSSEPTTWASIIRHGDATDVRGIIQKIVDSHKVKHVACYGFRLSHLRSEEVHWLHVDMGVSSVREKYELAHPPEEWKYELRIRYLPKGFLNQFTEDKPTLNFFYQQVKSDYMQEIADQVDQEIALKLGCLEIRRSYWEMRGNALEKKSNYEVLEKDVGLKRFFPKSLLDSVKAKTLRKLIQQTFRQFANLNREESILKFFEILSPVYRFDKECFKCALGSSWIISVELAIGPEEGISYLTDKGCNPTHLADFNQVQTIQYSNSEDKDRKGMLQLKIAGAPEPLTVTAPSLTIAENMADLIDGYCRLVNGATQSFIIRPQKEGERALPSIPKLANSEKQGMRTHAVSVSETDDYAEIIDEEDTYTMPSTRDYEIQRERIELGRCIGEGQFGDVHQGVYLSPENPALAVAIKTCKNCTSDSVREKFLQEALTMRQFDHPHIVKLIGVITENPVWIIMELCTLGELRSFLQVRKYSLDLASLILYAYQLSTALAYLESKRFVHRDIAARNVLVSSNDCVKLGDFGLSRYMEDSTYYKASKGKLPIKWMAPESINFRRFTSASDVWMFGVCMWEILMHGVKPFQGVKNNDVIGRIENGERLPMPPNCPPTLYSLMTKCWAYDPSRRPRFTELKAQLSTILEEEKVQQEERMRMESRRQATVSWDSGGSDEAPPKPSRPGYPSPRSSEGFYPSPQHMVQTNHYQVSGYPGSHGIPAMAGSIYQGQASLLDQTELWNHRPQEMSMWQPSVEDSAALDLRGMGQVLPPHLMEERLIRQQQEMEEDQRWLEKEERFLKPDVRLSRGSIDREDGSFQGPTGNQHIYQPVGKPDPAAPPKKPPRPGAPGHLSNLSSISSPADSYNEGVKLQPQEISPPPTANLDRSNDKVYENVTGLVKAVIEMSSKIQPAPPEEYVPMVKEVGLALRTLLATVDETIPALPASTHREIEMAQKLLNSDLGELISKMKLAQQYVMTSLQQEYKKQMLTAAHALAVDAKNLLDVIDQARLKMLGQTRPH
Kind of test: affinity resin pull-down from cell lysate, western blot. It is filed as biochemical. The following applies: immobilised 5-PCP-InsP5 resin.

Turning to `O=C(N[C@@H]1[C@@H](OP(=O)(O)O)[C@H](OP(=O)(O)O)[C@H](OP(=O)(O)O)[C@H](OP(=O)(O)O)[C@H]1OP(=O)(O)O)C(F)(F)P(=O)(O)O` [5-PCF2Am-InsP5], the “block of 5-InsP7-mediated FAK dimerization” value at FAK (GST-FAK, flag-FAK) [1] was 5-PCP and CF2 compete with 5-InsP7 to block 5-InsP7-mediated FAK dimer formation.

As to `O=P(O)(O)CP(=O)(O)O[C@H]1[C@H](OP(=O)(O)O)[C@@H](OP(=O)(O)O)[C@@H](OP(=O)(O)O)[C@@H](OP(=O)(O)O)[C@@H]1OP(=O)(O)O` [5-PCP-InsP5], the “affinity resin pull-down of purified protein, western blot” value at p34 (flag-p34) was “pulls down purified p34 and coronin in an in vitro protein binding assay”; at coronin (GST-coronin), “pulls down purified p34 and coronin in an in vitro protein binding assay”; on FAK (GST-FAK, flag-FAK) [2] it was 5-PCP resin pulls down purified full length (FL) FAK and FAK FERM domain. Further, the “affinity resin pull-down from cell lysate, western blot” value on endogenous FAK (MEF) was 5-PCP resin pulls down endogenous FAK in WT and IP6K1 KO MEF cells.
